Experimental findings from patent US20080064718A1, “INHIBITORS OF PROTEIN TYROSINE KINASE ACTIVITY” (priority 2006, published 2008) are described below.

The target of test [1] is T1, VEGF receptor KDR (Homo sapiens, UniProt P35968).
T1 construct: made in house; host or cells: Sf9 cells (Spodoptera frugiperda), recombinant baculovirus
Put plainly: In vitro receptor tyrosine kinase assay, VEGF receptor KDR (DELFIA). Type of test: biochemical. The note with it: GST-VEGFR2 806-1356, ATP 0.6 uM; read-out: VEGFR IC50. An excerpt: In the case of VEGF receptor KDR a 1.6-kb cDNA corresponding to the catalytic domain of VEGFR2 or KDR (Genbank accession number AF035121 amino acid 806 to 1356) is cloned into the Pst I site of the pDEST20 Gateway vector (Invitrogen) for the production of a GST-tagged version of that enzyme.
The GST-VEGFR2806-1356 protein is expressed in Sf9 cells (Spodoptera frugiperda) upon infection with recombinant baculovirus construct.
The supernatant is loaded onto a GST-agarose column (Sigma) equilibrated with PBS pH 7.3. Following a four column volume (CV) wash with PBS pH 7.3+1% Triton X-100 and 4 CV wash with buffer B (50 mM Tris pH 8.0, 20% glycerol and 100 mM NaCl), bound proteins are step eluted with 5 CV of buffer B supplemented with 5 mM DTT and 15 mM glutathion. […] Final GST-VEGFR2806-1356 protein preparations concentrations are about 0.7 mg/ml with purity approximating 70%.

Test [2] relates to DU145. The test is described as follows: DU145 scattering. The note with it: Homo sapiens, DU-145; DU145 cells; read-out: CMET DU145 SCATT HEAL- IC50 UM. In kind it is cell-based.
Test [3] addresses T2, c-Met (Homo sapiens, UniProt P08581).
T2 construct: endogenous in cells; host or cells: MKN45 gastric carcinoma cells
Put plainly: c-Met phosphorylation direct ELISA in MKN45 cells. In kind it is cell-based. The note with it: 3 h treatment. The procedure:
Alternatively, the following assay is used to determine inhibition of c-Met phosphorylation.
The c-Met receptor is expressed in numerous cancer cell lines derived from tumors of epithelial origin. In MKN45 gastric carcinoma cells the c-Met gene is amplified, resulting in several-fold overexpression of the receptor and its constitutive activation.
Cell treatments: MKN45 cells are seeded into wells of 96-well plates at a density of 3×10^4 cells/well in RPMI medium supplemented with 10% FBS. […] Inhibitors are added to the medium in triplicate wells at the indicated doses.
After an overnight protein binding incubation at 4° C., lysates are aspirated and wells are blocked for 1 h at 37° C. in TBST supplemented with 5% BSA. Plates are incubated with the primary antibodies anti-phospho-Tyrosine (Millipore, 4G10) diluted 1/15000 in TBST supplemented with 5% BSA for 1 h at room temperature. Plates are washed 3 times on a plate washer (SkanWasher, Molecular Devises), and incubated with the reporter antibody […] (Sigma) diluted 1/15000 in TBST supplemented with 5% BSA, for 1 h at room temperature. Plates are washed 3 times with TBST using on a plate washer and subsequently incubated with chemiluminescent substrate solution (ECL, Roche). Luminescence signal is captured on a Polar Star Optima apparatus (BMG LabTech).
Average values of the triplicate samples are used to prepare IC50 curves using a 4-parameter fit model. These curves are calculated using, for example, GraFit 5.0 software. For assay standardization purpose, an internal control is included on each experimental test plate.
In general terms: In an ELISA, binding on a coated surface is turned into a signal by an enzyme label.

Test [4] deals with recombinant human c-Met/HGF receptor (Homo sapiens, UniProt P08581). The test is described as follows: In vitro receptor tyrosine kinase assay, c-Met/HGF receptor (DELFIA).
recombinant human c-Met/HGF receptor, sequence (P08581 1078-1337): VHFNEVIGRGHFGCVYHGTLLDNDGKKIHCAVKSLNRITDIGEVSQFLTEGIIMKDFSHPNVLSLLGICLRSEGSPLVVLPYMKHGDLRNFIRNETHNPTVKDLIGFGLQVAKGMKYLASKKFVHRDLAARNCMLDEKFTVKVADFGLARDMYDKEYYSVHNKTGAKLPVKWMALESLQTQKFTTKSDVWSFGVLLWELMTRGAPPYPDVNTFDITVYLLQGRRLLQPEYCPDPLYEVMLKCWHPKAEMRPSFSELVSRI
In test [5] the test system is A549. Put plainly: A549 inhibition of wound healing. In kind it is cell-based. The note with it: Homo sapiens; A549 cells; read-out: A549 INHIB WND ING IC50 UM.

Where only a bound is given, the exact number is not on record here.

T2 sequence (P08581 25-1390): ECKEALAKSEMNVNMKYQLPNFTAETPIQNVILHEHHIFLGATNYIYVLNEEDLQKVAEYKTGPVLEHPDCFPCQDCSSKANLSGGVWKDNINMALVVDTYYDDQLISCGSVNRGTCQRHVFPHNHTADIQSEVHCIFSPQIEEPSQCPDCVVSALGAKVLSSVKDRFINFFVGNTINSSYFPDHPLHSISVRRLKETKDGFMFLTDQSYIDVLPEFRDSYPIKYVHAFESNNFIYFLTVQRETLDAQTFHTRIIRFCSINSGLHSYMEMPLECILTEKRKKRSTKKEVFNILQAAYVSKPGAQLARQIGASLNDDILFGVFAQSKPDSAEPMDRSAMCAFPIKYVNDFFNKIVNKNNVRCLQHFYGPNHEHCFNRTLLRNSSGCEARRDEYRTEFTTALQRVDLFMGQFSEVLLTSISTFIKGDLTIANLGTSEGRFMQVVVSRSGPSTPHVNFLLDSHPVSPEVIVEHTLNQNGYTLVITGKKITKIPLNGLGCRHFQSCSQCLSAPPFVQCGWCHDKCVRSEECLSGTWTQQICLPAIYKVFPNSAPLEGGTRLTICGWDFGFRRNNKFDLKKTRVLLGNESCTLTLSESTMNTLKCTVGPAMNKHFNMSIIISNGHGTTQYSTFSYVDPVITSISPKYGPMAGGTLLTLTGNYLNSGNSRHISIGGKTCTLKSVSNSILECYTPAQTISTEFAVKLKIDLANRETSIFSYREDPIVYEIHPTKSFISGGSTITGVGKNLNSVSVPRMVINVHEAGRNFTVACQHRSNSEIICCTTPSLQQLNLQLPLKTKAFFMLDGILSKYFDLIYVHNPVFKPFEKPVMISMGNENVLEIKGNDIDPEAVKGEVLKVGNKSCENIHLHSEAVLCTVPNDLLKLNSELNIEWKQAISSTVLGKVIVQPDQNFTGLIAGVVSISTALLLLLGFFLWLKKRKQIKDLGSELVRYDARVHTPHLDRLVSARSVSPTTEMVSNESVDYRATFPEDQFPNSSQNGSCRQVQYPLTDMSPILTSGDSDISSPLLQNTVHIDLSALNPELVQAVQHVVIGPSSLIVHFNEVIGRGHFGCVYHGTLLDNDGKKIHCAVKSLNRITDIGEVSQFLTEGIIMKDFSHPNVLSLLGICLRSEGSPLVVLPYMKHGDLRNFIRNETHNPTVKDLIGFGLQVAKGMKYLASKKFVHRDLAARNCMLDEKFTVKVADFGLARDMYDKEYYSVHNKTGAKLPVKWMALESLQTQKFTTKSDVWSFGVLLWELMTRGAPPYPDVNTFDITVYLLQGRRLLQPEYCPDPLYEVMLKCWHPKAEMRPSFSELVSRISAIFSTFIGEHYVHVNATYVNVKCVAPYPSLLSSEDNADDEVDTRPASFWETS
T1 sequence (P35968 806-1356): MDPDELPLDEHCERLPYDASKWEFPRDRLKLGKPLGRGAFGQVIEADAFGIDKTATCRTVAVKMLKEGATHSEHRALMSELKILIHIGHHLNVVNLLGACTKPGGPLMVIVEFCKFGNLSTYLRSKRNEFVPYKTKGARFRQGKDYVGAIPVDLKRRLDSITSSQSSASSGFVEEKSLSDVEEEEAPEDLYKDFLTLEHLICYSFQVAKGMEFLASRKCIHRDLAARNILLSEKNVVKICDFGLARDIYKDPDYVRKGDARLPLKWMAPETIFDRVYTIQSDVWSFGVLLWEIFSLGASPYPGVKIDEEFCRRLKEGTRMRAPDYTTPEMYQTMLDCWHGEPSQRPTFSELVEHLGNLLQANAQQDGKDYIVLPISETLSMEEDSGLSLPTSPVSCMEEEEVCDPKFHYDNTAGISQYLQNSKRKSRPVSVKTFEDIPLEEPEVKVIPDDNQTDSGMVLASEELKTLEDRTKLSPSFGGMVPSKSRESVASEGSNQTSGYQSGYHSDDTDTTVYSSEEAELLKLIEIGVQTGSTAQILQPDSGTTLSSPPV

Usually IC50 stands for the midpoint of a concentration-inhibition curve. With `CN(C)C(=O)c1ccc(-c2cc3nccc(Oc4ccc(NC(=O)N5CCN(c6ccccc6)C5=O)cc4F)c3s2)cc1`, the IC50 in test [1] is less than 0.25 µM; in test [2], 0.25 to 0.5 µM; in test [3], less than 0.25 µM; in test [4] it was less than 0.25 µM; in test [5] it was less than 0.25 µM.
As for `CN(C)CCOC(=O)N1CC=C(c2cc3nccc(Oc4ccc(NC(=O)N5CCN(c6ccccc6)C5=O)cc4F)c3s2)CC1`, the IC50 in test [1] was less than 0.25 µM; in test [2], 0.25 to 0.5 µM; in test [3] it was less than 0.25 µM; in test [4] it was less than 0.25 µM; in test [5], 0.25 to 0.5 µM.
Consider `CCn1cnc(-c2cc3nccc(Oc4ccc(N(C)C(=O)N5CCN(c6ccccc6)C5=O)cc4F)c3s2)c1`, for which the 50% inhibitory concentration (IC50) was less than 0.25 µM in test [1]; more than 1 µM in test [2]; 0.5 to 1 µM in test [3]; 0.5 to 1 µM in test [4]; more than 1 µM in test [5].
`Cn1cnc(-c2cc3nccc(Oc4ccc(NC(=O)c5cnn(-c6ccccc6)c5C(F)(F)F)cc4F)c3s2)c1`: the IC50 in test [1] is more than 1 µM; in test [2] it was more than 1 µM; in test [3], 0.5 to 1 µM; in test [4], less than 0.25 µM; in test [5], 0.25 to 0.5 µM.
Regarding `C=CCN1CCN(C(=O)Nc2ccc(Oc3ccnc4cc(-c5cn(CC)cn5)sc34)c(F)c2)C1=O`, the IC50 in test [1] is less than 0.25 µM; in test [2] it was 0.25 to 0.5 µM; in test [3], 0.25 to 0.5 µM; in test [4], less than 0.25 µM; in test [5] it was 0.25 to 0.5 µM.
As for `COCCN(C)Cc1ccc(-c2cc3nccc(Oc4ccc(NC(=O)NNc5ccccc5)cc4F)c3s2)cc1`, the half-maximal inhibitory concentration (IC50) in test [1] is more than 1 µM; in test [2] it was more than 1 µM; in test [3], less than 0.25 µM; in test [4] it was 0.25 to 0.5 µM; in test [5], 0.25 to 0.5 µM.
Consider `COCCNCc1ccc(-c2cc3nccc(Oc4ccc(NC(=O)c5cnn(-c6ccccc6)c5C(F)(F)F)cc4F)c3s2)nc1`, for which the IC50 was more than 1 µM in test [1]; 0.25 to 0.5 µM in test [2]; 0.25 to 0.5 µM in test [3]; less than 0.25 µM in test [4]; 0.25 to 0.5 µM in test [5].
Consider `Cn1ccnc1-c1cc2nccc(Oc3ccc(NC(=O)c4cccc(-c5ccccc5)c4F)cc3F)c2s1`, for which the IC50 was less than 0.25 µM in test [1]; more than 1 µM in test [2]; 0.5 to 1 µM in test [3]; less than 0.25 µM in test [4]; 0.25 to 0.5 µM in test [5].
Consider `O=C(O)c1ccc(-c2cc3nccc(Oc4ccc(NC(=O)c5cnn(-c6ccccc6)c5C(F)(F)F)cc4F)c3s2)nc1`, for which the IC50 in test [1] was more than 1 µM; in test [2] it was more than 1 µM; in test [3] it was more than 1 µM; in test [4] it was less than 0.25 µM; in test [5] it was more than 1 µM.
